Measurements as given in patent US10765114B2, “4-amino-6-(pyridyl and 2-substitutedphenyl)-picolinates and 6-amino-2-(pyridyl and 2-substitutedphenyl)-pyrimidine-4-carboxylates and their use as herbicides” (Dow AgroSciences LLC, priority 2013, dated 2020).
Where two headings read alike, the source gives them in different places.

Legend:
[1] = system: Key Broadleaf Weed and Crop Species; experiment: Post-Emergent Test II (Table 5); type: in vivo; settings: post-emergence, 336 h; for pest or weed control at 70 g/ha: application rate 70 (kg ai/ha; footnote: g ai/ha); for pest or weed control at 140 g/ha: application rate 140 (kg ai/ha; footnote: g ai/ha)
Procedure, shortened: (§1)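 Post-emergence greenhouse spray, 1st-2nd true leaf stage; track sprayer, 187 L/ha; acetone/DMSO stock diluted in aqueous acetone/IPA/DMSO with Atplus 411F and Triton X-155; rates 1× to 1/16×; subirrigated; visual injury 0 (none) to 100% (complete kill) at 14 days.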

[2] = system: Key Grass and Sedge Weeds as well as Grass Crops; experiment: Post-Emergent Test II (Table 6); type: in vivo; settings: post-emergence, 336 h, 14 days after application; for pest or weed control at 70 g/ha: 70 g ai/ha; for pest or weed control at 140 g/ha: 140 g ai/ha
Procedure, shortened: as §1

[3] = Abutilon theophrasti, ABUTH: velvetleaf (Abutilon theophrasti), read-out: Visual Growth Reduction (%) 14 Days After Application ABUTH
[4] = Amaranthus retroflexus, AMARE: redroot pigweed (Amaranthus retroflexus), read-out: Visual Growth Reduction (%) 14 Days After Application AMARE
[5] = Brassica napus, BRSSS: oilseed rape, canola (Brassica napus), read-out: Visual Growth Reduction (%) 14 Days After Application BRSSS
[6] = Chenopodium album, CHEAL: lambsquarters (Chenopodium album), read-out: Visual Growth Reduction (%) 14 Days After Application CHEAL
[7] = Euphorbia heterophylla, EPHHL: wild poinsettia (Euphorbia heterophylla), read-out: Visual Growth Reduction (%) 14 Days After Application EPHHL
[8] = Helianthus annuus, HELAN: sunflower (Helianthus annuus), read-out: Visual Growth Reduction (%) 14 Days After Application HELAN
[9] = Viola tricolor, VIOTR: wild pansy (Viola tricolor), read-out: Visual Growth Reduction (%) 14 Days After Application VIOTR
[10] = CYPSS, read-out: Visual Growth Reduction (%) 14 Days After Application CYPSS
[11] = DIGSA: crabgrass (Digitaria sanguinalis), read-out: Visual Growth Reduction (%) 14 Days After Application DIGSA
[12] = ECHSS, read-out: Visual Growth Reduction (%) 14 Days After Application ECHSS
[13] = ORYSS (crop), read-out: Visual Growth Reduction (%) 14 Days After Application ORYSS
[14] = SETFA: giant foxtail (Setaria faberi), read-out: Visual Growth Reduction (%) 14 Days After Application SETFA
[15] = SORVU: grain sorghum (Sorghum vulgare), read-out: Visual Growth Reduction (%) 14 Days After Application SORVU
[16] = TRZSS (crop), read-out: Visual Growth Reduction (%) 14 Days After Application TRZSS
[17] = ZEAMX: maize, corn (Zea mays), read-out: Visual Growth Reduction (%) 14 Days After Application ZEAMX

SMILES	pest or weed control at 70 g/ha [1, 3] [%]	pest or weed control at 140 g/ha [1, 3] [%]	pest or weed control at 70 g/ha [1, 4] [%]	pest or weed control at 140 g/ha [1, 4] [%]	pest or weed control at 70 g/ha [1, 5] [%]	pest or weed control at 140 g/ha [1, 5] [%]	pest or weed control at 70 g/ha [1, 6] [%]	pest or weed control at 140 g/ha [1, 6] [%]	pest or weed control at 70 g/ha [1, 7] [%]	pest or weed control at 140 g/ha [1, 7] [%]	pest or weed control at 70 g/ha [1, 8] [%]	pest or weed control at 140 g/ha [1, 8] [%]	pest or weed control at 70 g/ha [1, 9] [%]	pest or weed control at 140 g/ha [1, 9] [%]	pest or weed control at 70 g/ha [2, 10] [%]	pest or weed control at 140 g/ha [2, 10] [%]	pest or weed control at 70 g/ha [2, 11] [%]	pest or weed control at 140 g/ha [2, 11] [%]	pest or weed control at 70 g/ha [2, 12] [%]	pest or weed control at 140 g/ha [2, 12] [%]	further results
COC(=O)c1nc(-c2ccc(Cl)c(F)c2C(=O)O)cc(N)c1Cl [Compound 91, 6-(4-amino-5-chloro-6-(methoxycarbonyl)pyridin-2-yl)-3-chloro-2-fluorobenzoic acid]	0 to 29	0 to 29	0 to 29	0 to 29	0 to 29	0 to 29	0 to 29	0 to 29	0 to 29	0 to 29	0 to 29	0 to 29	0 to 29	0 to 29	0 to 29	0 to 29	0 to 29	0 to 29	0 to 29	0 to 29	pest or weed control at 70 g/ha [2, 13]: 0 to 29%; pest or weed control at 140 g/ha [2, 13]: 0 to 29%; pest or weed control at 70 g/ha [2, 14]: 0 to 29%; pest or weed control at 140 g/ha [2, 14]: 0 to 29%; pest or weed control at 70 g/ha [2, 15]: 0 to 29%; pest or weed control at 140 g/ha [2, 15]: 0 to 29%; pest or weed control at 70 g/ha [2, 16]: 0 to 29%; pest or weed control at 140 g/ha [2, 16]: 0 to 29%; pest or weed control at 70 g/ha [2, 17]: 0 to 29%; pest or weed control at 140 g/ha [2, 17]: 0 to 29%
COC(=O)c1nc(-c2ccc(Cl)c(F)c2C)nc(N)c1Cl [Compound 31]	85 to 94	85 to 94	95 to 100	95 to 100	30 to 44	45 to 59	95 to 100	95 to 100	0 to 29	0 to 29	85 to 94	85 to 94	0 to 29	0 to 29	0 to 29	0 to 29	0 to 29	0 to 29	0 to 29	0 to 29	pest or weed control at 70 g/ha [2, 13]: 0 to 29%; pest or weed control at 140 g/ha [2, 13]: 0 to 29%; pest or weed control at 70 g/ha [2, 15]: 0 to 29%; pest or weed control at 140 g/ha [2, 15]: 0 to 29%; pest or weed control at 70 g/ha [2, 16]: 0 to 29%; pest or weed control at 140 g/ha [2, 16]: 0 to 29%; pest or weed control at 70 g/ha [2, 17]: 0 to 29%; pest or weed control at 140 g/ha [2, 17]: 0 to 29%
